Data reported in ChEMBL document CHEMBL1201862, “PubChem BioAssay data set” (2004).
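Following 48 hours of exposure in 96-well plates, responses at five concentrations were used to interpolate endpoints linearly. Here, GI50 denotes the concentration required for 50% inhibition of growth.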 Activity calls are given as the source filed them. No stated cut-off is given here; in the data, active = GI50 up to about 1.1 µM and inactive = higher.

Tests used:
Assay in all cases: DTP human tumour cell line panel, 48 h
[1] = tested on: NCI-H226
[2] = tested on: SK-MEL-5
[3] = tested on: SW-620
[4] = tested on: CCRF-CEM
[5] = tested on: UACC-62
[6] = tested on: MDA-MB-435
[7] = tested on: Hs-578T
[8] = tested on: MDA-N
[9] = tested on: SK-MEL-2
[10] = tested on: K562
[11] = tested on: NCI-H522
[12] = tested on: 786-0
[13] = tested on: CAKI-1
[14] = tested on: MCF7
[15] = tested on: TK-10
[16] = tested on: HOP-62
[17] = tested on: RPMI-8226
[18] = tested on: HOP-92
[19] = tested on: NCI/ADR-RES
[20] = tested on: UO-31
[21] = tested on: ACHN
[22] = tested on: SF-268
[23] = tested on: SF-539
[24] = tested on: HT-29
[25] = tested on: EKVX
[26] = tested on: SNB-75
[27] = tested on: UACC-257
[28] = tested on: DU-145
[29] = tested on: NCI-H23
[30] = tested on: SNB-19
[31] = tested on: HCC 2998
[32] = tested on: COLO 205
[33] = tested on: OVCAR-8
[34] = tested on: RXF 393
[35] = tested on: U-251
[36] = tested on: Malme-3M
[37] = tested on: HL-60
[38] = tested on: SK-OV-3
[39] = tested on: SN12C
[40] = tested on: HCT-15
[41] = tested on: SF-295
[42] = tested on: M14
[43] = tested on: MDA-MB-231
[44] = tested on: PC-3
[45] = tested on: KM12
[46] = tested on: A549
[47] = tested on: IGROV-1
[48] = tested on: OVCAR-5
[49] = tested on: A498
[50] = tested on: HCT-116
[51] = tested on: LOX IMVI
[52] = tested on: T47D
[53] = tested on: OVCAR-4
[54] = tested on: SK-MEL-28
[55] = tested on: NCI-H460
[56] = tested on: MOLT-4
[57] = tested on: OVCAR-3
[58] = tested on: SR
[59] = tested on: BT-549

Measured: GI50

CC(C)C1OC(N)=C(C#N)C1(C#N)C#N (stereo not given)
inactive: [1] > 100 µM | [2] 33.3 µM | [3] 14.3 µM | [4] 10.9 µM | [5] 32.5 µM | [6] 29.6 µM | [7] 53.7 µM | [8] 38.2 µM | [9] > 100 µM | [10] 8.49 µM | [11] 34.6 µM | [12] 29.4 µM | [13] 3.79 µM | [14] 69.7 µM | [15] 83.4 µM | [16] 44.4 µM | [17] 29 µM | [18] 31.3 µM | [19] 58.1 µM | [20] 33.1 µM | [21] 36.9 µM | [22] 44.2 µM | [23] 44.7 µM | [24] 38.1 µM | [25] 62.2 µM | [26] 33.8 µM | [27] 17.1 µM | [28] 51.3 µM | [29] 33.3 µM | [30] 46.8 µM | [31] 24.5 µM | [32] 18.2 µM | [33] 41.9 µM | [34] 44.7 µM | [35] 54.1 µM | [36] > 100 µM | [37] 5.58 µM | [38] > 100 µM | [39] 69.7 µM | [41] > 100 µM | [42] 60.7 µM | [43] > 100 µM | [44] > 100 µM | [45] > 100 µM | [46] > 100 µM | [47] 51.4 µM | [48] > 100 µM | [49] > 100 µM | [50] 26.3 µM | [51] 28.1 µM | [52] 67.3 µM
> 10 µM: [40]

Cn1cnc(/C=C/C#N)c1
inactive: [53] > 100 µM | [1] 76.7 µM | [54] > 100 µM | [55] > 100 µM | [2] > 100 µM | [3] > 100 µM | [56] > 100 µM | [4] > 100 µM | [5] > 100 µM | [57] > 100 µM | [6] > 100 µM | [8] > 100 µM | [9] > 100 µM | [10] > 100 µM | [11] > 100 µM | [13] > 100 µM | [14] > 100 µM | [15] > 100 µM | [16] > 100 µM | [18] > 100 µM | [19] > 100 µM | [20] > 100 µM | [21] > 100 µM | [22] > 100 µM | [23] > 100 µM | [24] > 100 µM | [58] > 100 µM | [25] > 100 µM | [26] > 100 µM | [27] > 100 µM | [29] > 100 µM | [59] > 100 µM | [30] > 100 µM | [31] > 100 µM | [32] > 100 µM | [33] > 100 µM | [34] > 100 µM | [35] > 100 µM | [36] > 100 µM | [38] > 100 µM | [39] > 100 µM | [41] > 100 µM | [42] > 100 µM | [43] > 100 µM | [44] > 100 µM | [45] > 100 µM | [46] > 100 µM | [47] > 100 µM | [48] > 100 µM | [49] > 100 µM
> 100 µM: [40]

COc1cc(/C=C/c2ccnc3ccccc23)cc(OC)c1OC
inactive: [53] 1.81 µM | [1] 5.04 µM | [54] 3.08 µM | [55] 3.77 µM | [2] 2.45 µM | [3] 4.93 µM | [56] 2.92 µM | [4] 2.09 µM | [5] 3.17 µM | [57] 3.3 µM | [7] 3.85 µM | [9] 3.78 µM | [11] 2.13 µM | [12] 8.97 µM | [13] 3.7 µM | [14] 5.22 µM | [15] 5.37 µM | [16] 7.16 µM | [17] 3.72 µM | [19] 2.46 µM | [21] 7.23 µM | [22] 3.39 µM | [23] 3.78 µM | [24] 1.28 µM | [58] 1.35 µM | [25] 8.87 µM | [27] 5.27 µM | [28] 4.84 µM | [29] 1.66 µM | [30] 10.4 µM | [31] 8.47 µM | [32] 1.88 µM | [34] 1.63 µM | [35] 4.99 µM | [36] 2.98 µM | [38] 4.19 µM | [39] 3.56 µM | [41] 8.47 µM | [42] 3.63 µM | [43] 2.21 µM | [44] 9.29 µM | [45] 3.23 µM | [46] 4.52 µM | [47] 3.66 µM | [48] 7.8 µM | [49] 4 µM | [50] 1.82 µM | [51] 4.63 µM | [52] 3.81 µM
2.56 µM: [40]
active: [6] 0.413 µM | [8] 0.351 µM | [20] 0.132 µM | [37] 0.416 µM

O=C1CCC[C@H]2O[C@@H](COCc3ccccc3)C[C@@H]12
inactive: [53] > 100 µM | [1] > 100 µM | [54] > 100 µM | [55] > 100 µM | [2] > 100 µM | [3] > 100 µM | [56] > 100 µM | [4] > 100 µM | [5] > 100 µM | [57] > 100 µM | [6] > 100 µM | [7] > 100 µM | [8] > 100 µM | [9] > 100 µM | [10] > 100 µM | [12] > 100 µM | [13] > 100 µM | [14] > 100 µM | [15] > 100 µM | [16] > 100 µM | [17] > 100 µM | [18] > 100 µM | [19] > 100 µM | [20] > 100 µM | [21] > 100 µM | [22] > 100 µM | [23] > 100 µM | [24] > 100 µM | [58] > 100 µM | [26] > 100 µM | [27] > 100 µM | [28] > 100 µM | [29] > 100 µM | [30] > 100 µM | [32] > 100 µM | [33] > 100 µM | [35] > 100 µM | [37] > 100 µM | [38] > 100 µM | [39] > 100 µM | [41] > 100 µM | [42] > 100 µM | [43] > 100 µM | [44] > 100 µM | [45] > 100 µM | [46] > 100 µM | [48] > 100 µM | [49] > 100 µM | [50] > 100 µM | [52] > 100 µM
> 100 µM: [40]

CSc1nncc(-c2cc3c(c(SC)n2)CCCC3)n1
inactive: [53] > 100 µM | [1] > 100 µM | [54] > 100 µM | [55] > 100 µM | [2] > 100 µM | [3] > 100 µM | [56] > 100 µM | [4] > 100 µM | [5] > 100 µM | [57] > 100 µM | [6] > 100 µM | [8] > 100 µM | [9] > 100 µM | [10] > 100 µM | [11] 53.7 µM | [12] > 100 µM | [13] 61.5 µM | [15] > 100 µM | [16] 30.5 µM | [17] > 100 µM | [19] > 100 µM | [20] > 100 µM | [21] > 100 µM | [22] 26.9 µM | [23] > 100 µM | [24] > 100 µM | [58] > 100 µM | [25] > 100 µM | [26] 60.7 µM | [27] > 100 µM | [28] > 100 µM | [29] > 100 µM | [59] > 100 µM | [30] > 100 µM | [31] > 100 µM | [32] > 100 µM | [33] 54.8 µM | [34] 47.3 µM | [35] > 100 µM | [37] > 100 µM | [38] 40.1 µM | [39] > 100 µM | [41] > 100 µM | [42] > 100 µM | [43] > 100 µM | [44] > 100 µM | [45] > 100 µM | [46] > 100 µM | [48] > 100 µM | [49] > 100 µM | [50] > 100 µM
> 100 µM: [40]
